Measured values taken from US9078805B2, “Method for producing a drug delivery system on the basis of polyelectrolyte complexes” (LEIBNIZ-INSTITUT FUER POLYMER-FORSCHUNG DRESDEN E.V., priority 2010, dated 2015).

Test: Release of the bisphosphonate and stability of the PEC carrier layer on a germanium model substrate, measured via spectroscopic methods
Format: physicochemical
Conditions: after 1 minute; layer applied and dried on the same germanium model substrate
Protocol: 50 microliter of this drug-loaded PEC dispersion was brushed onto an inorganic planar model substrate of germanium and dried in the drying oven at 50° C. The measurement of the release of the bisphosphonate and the stability of the PEC carrier layer was carried out via spectroscopic methods. After 24 hours a relative reduction of the bisphosphonate content of the PEC/drug layer of approximately 50% resulted. […] For a layer of the pure bisphosphonate applied and dried on the same model substrate as in the case of PEC/drug, after 1 minute an immediate detachment and thus a relative reduction of the bisphosphonate content of approximately 100% resulted.

relative reduction of the bisphosphonate content (immediate detachment): approximately 100%
SMILES: NCCC(O)(P(=O)(O)O)P(=O)(O)O [pure bisphosphonate, pamidronate]
